Experimental data reported in patent US20220110933A1, “METHODS OF TREATING DISEASE WITH MAGL INHIBITORS” (H. Lundbeck A/S, priority 2019, published 2022).

What was measured:
[1] = Plasma exposure and half-life in MPTP-lesioned macaques; assay type: in vivo, cynomolgus macaque; conditions: cynomolgus monkey
[2] = tested on: L-DOPA induced dyskinesia in MPTP-lesioned cynomolgus macaques; assay: MPTP-lesioned macaque model of L-DOPA induced dyskinesia (LID); assay type: in vivo, cynomolgus macaque; conditions: for reduction in median peak-dose dyskinesia after L-DOPA administration: single dose 2 h before L-DOPA, 0-2 h post L-DOPA
Method: The study utilized 8 female MPTP-lesioned cynomolgus macaques (10-15 years in age) that have received chronic repeat-treatment with L-DOPA and manifest stable and reproducible dyskinesia, of choreic and dystonic nature, in response to subsequent L-DOPA treatments.
A MGLL inhibitor, Compound 21, (3, 10 and 30 mg/kg), reference drug amantadine (10 mg/kg) and vehicle were administered by oral gavage as a single dose 2 h before a high-dose of L-DOPA (administered as Madopar™). The L-DOPA dose individualized for each animal is one that induced robust and reproducible anti-parkinsonian effects lasting ˜3-4 h but compromised by disabling dyskinesia. The animals were video-recorded for a 6 h period following L-DOPA administration and the effects of each treatment on dyskinesia, parkinsonian disability, duration and quality of anti-parkinsonian benefit (on-time) were scored blinded by a neurologist. Dyskinesia was scored using the non-human primate dyskinesia rating scale (NHPDysRS) and disability was scored using the monkey parkinsonian disability rating scale (mPDRS).
The study design was an ascending dose crossover with all animals receiving each treatment in the order of vehicle, 10 mg/kg amantadine, 3 mg/kg Compound 21, 10 mg/kg Compound 21, and 30 mg/kg Compound 21.

half-life ([1]; in vivo) [h]	SMILES	dyskinesia in the 1-2 h post L-DOPA interval ([2]; 10 mg/kg p.o.)	reduction in median peak-dose dyskinesia after L-DOPA administration ([2]; 10 mg/kg p.o.) [%]	reduction in median peak-dose dyskinesia after L-DOPA administration ([2]; 30 mg/kg p.o.) [%]	statistical significance of reduction in 0-2 hour total dyskinesia scores ([2]; 3, 10 and 30 mg/kg p.o.)	median peak dose dyskinesia induced by L-DOPA administration ([2]; 3, 10 and 30 mg/kg p.o., 0-2 h post L-DOPA totals)	anti-dyskinetic effects (overall) ([2]; MPTP-lesioned macaque model of L-DOPA induced dyskinesia)	benefit on dystonia and chorea ([2]; data not shown)	therapeutic effects on median dyskinesia ratings compared with amantadine ([2]; versus amantadine 10 mg/kg)	concentration at 2 h ([1]; plasma, oral, 10 mg/kg p.o., 2 h post-dose) [ng/mL]	concentration at 8 h ([1]; plasma, oral, 10 mg/kg p.o., 8 h post-dose) [ng/mL]	parkinsonian disability ([2]; 10 mg/kg p.o., 0-2 h post L-DOPA administration totals, P<0.05)
16 to 34	O=C(OC(C(F)(F)F)C(F)(F)F)N1CCN(Cc2ccc(Cl)cc2N2CC3CCC(C2)O3)CC1 [Compound 21, 1,1,1,3,3,3-Hexafluoropropan-2-yl 4-(2-(8-oxa-3-azabicyclo[3.2.1]octan-3-yl)-4-chlorobenzyl)piperazine-1-carboxylate]	significant reduction	45	35	did not reach statistical significance	dose-dependently reduced	robust anti-dyskinetic effects	evidence of benefit on both dystonia and chorea	of greater magnitude	–	–	–
–	NC12CC3CC(CC(C3)C1)C2 [Amantadine, amantadine, reference compound]	–	29	–	–	–	–	–	–	1300	1500	mild and statistically significant worsening
